In patent publication US9975903B2, “Condensed heterocyclic compound” (Takeda Pharmaceutical Company Limited, priority 2014, dated 2018):
Counter-ions that a name gives are not always drawn.

What follows are compounds tested on High fat diet-fed (HFD-fed) mice (assay: Fecal protein concentration-increasing test using HFD-fed mouse (Test Example 2-2)). Details: male, 47-week old, 10 mg/kg orally, whole feces of first day of administration, average ± standard deviation, five mice.
Type: in vivo
Method: High fat diet-fed (HFD-fed) mice (D12079B diet, male, 47-week old) were orally administered with a 0.5% methyl cellulose suspension containing a test compound (10 mg/kg) (compound administration group, five mice per group) or a 0.5% methyl cellulose suspension (compound non-administration group (vehicle), five mice per group), and whole feces were collected on the first day of administration. Dried feces were dissolved in 0.5 N NaOH, followed by centrifugation at 12,000 rpm. The protein concentration in the supernatant was quantitatively measured (Lowry method), and the amount of protein contained in 1 g of feces was calculated as the fecal protein concentration (mg/g feces). The average and the standard deviation of each group are shown below.

`N=C(N)Nc1ccc2c(c1)CCCOc1c(cccc1C(=O)N(CCN(CC(=O)O)CC(=O)O)CC(=O)O)OC2=O` [Example 120, N-(2-(Bis(carboxymethyl)amino)ethyl)-N-((10-carbamimidamido-13-oxo-6,7,8,13-tetrahydrodibenzo[b,f][1,4]dioxecin-4-yl)carbonyl)glycine] and `N=C(N)Nc1ccc2c(c1)CCCOc1c(ccc(CCC(=O)O)c1C(=O)N(CC(=O)O)Cc1cccc(C(=O)O)c1)OC2=O` [Example 145, 3-((((10-Carbamimidamido-3-(2-carboxyethyl)-13-oxo-6,7,8,13-tetrahydrodibenzo[b,f][1,4]dioxecin-4-yl)carbonyl) (carboxymethyl)amino)methyl)benzoic acid] are within error of each other in “Fecal protein concentration (mg/g feces)” value: 194.6 ± 48.1 mg/g feces for the first, 201.3 ± 45.3 mg/g feces for the second.

The compounds below were run against T1, Human recombinant enteropeptidase (Homo sapiens, UniProt P98073) (assay: Human enteropeptidase inhibitory activity (Test Example 1)). Details: 3.3 μM test compound; inhibition rate from fluorescence intensity at 2 hours after the start of the reaction; read-out: 3.3 μM Inhibition.
T1 construct: purchased ITSI-Biosciences LLC #REN-260
T1 sequence (P98073 whole entry): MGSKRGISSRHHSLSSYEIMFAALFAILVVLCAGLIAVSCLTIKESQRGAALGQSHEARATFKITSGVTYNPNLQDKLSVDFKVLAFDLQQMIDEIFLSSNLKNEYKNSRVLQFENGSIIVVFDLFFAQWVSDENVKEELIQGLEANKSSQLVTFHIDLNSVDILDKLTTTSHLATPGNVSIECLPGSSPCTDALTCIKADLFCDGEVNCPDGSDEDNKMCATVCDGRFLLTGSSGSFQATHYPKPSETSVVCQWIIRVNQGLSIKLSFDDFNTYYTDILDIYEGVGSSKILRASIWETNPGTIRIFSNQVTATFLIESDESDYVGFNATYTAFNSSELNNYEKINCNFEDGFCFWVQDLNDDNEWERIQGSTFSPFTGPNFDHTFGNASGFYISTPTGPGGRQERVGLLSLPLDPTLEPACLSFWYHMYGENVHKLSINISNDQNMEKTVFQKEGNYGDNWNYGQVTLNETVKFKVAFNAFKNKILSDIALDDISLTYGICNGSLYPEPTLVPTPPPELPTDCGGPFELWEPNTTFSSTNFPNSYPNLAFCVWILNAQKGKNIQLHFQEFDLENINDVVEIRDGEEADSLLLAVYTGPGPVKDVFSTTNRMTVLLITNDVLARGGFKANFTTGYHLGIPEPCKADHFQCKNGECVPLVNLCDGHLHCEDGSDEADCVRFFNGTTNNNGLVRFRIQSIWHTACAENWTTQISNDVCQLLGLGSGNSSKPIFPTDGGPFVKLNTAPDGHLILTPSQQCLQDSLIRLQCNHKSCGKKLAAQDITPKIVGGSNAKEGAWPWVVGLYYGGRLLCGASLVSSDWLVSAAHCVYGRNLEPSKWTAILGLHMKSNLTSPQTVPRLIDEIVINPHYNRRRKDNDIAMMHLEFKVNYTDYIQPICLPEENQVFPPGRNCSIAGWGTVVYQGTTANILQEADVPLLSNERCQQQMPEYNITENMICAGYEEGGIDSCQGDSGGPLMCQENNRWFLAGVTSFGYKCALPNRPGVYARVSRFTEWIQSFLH
Type: biochemical
Method in brief: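 Recombinant human enteropeptidase in 50 mM Tricine pH 8.0, 0.01% Tween 20, 10 mM CaCl2, with a 5FAM/CPQ2-quenched peptide substrate (2.1 μM solution before mixing). Compound came from 1 mM DMSO stock diluted 100-fold in buffer. Fluorescence (ex 485/em 535 nm) at 2 h gave % inhibition versus no-compound and no-enzyme controls.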

Going from `N=C(N)Nc1ccc2c(c1)CCCOc1c(cccc1C(=O)N(CCN(CC(=O)O)CC(=O)O)CC(=O)O)OC2=O` [Example 120, N-(2-(Bis(carboxymethyl)amino)ethyl)-N-((10-carbamimidamido-13-oxo-6,7,8,13-tetrahydrodibenzo[b,f][1,4]dioxecin-4-yl)carbonyl)glycine] to `N=C(N)Nc1ccc2c(c1)CCCOc1c(cccc1C(=O)N(CC(=O)O)C(CC(=O)O)CC(=O)O)OC2=O` [Example 106, 3-(((10-Carbamimidamido-13-oxo-6,7,8,13-tetrahydrodibenzo[b,f][1,4]dioxecin-4-yl)carbonyl) (carboxymethyl)amino)pentanedioic acid], the inhibition at 3.3 µM falls from 101% to 100%.

Compared with `N=C(N)Nc1ccc2c(c1)CCCOc1c(ccc(CCC(=O)O)c1C(=O)N(CC(=O)O)Cc1cccc(C(=O)O)c1)OC2=O` [Example 145, 3-((((10-Carbamimidamido-3-(2-carboxyethyl)-13-oxo-6,7,8,13-tetrahydrodibenzo[b,f][1,4]dioxecin-4-yl)carbonyl) (carboxymethyl)amino)methyl)benzoic acid], `N=C(N)Nc1ccc2c(c1)CCCOc1c(cccc1C(=O)N(CC(=O)O)CC(=O)N(CC(=O)O)Cc1cccc(C(=O)O)c1)OC2=O` [Example 141, N-((10-Carbamimidamido-13-oxo-6,7,8,13-tetrahydrodibenzo[b,f][1,4]dioxecin-4-yl)carbonyl)-N-(carboxymethyl)glycyl-N-(3-carboxybenzyl)glycine] is higher in inhibition at 3.3 µM: 99% for the first, 100% for the second.

Going from `N=C(N)Nc1ccc2c(c1)CCCOc1c(cccc1C(=O)N[C@@H](Cc1ccccc1)C(=O)O)OC2=O` [Example 87, N-((10-carbamimidamido-13-oxo-6,7,8,13-tetrahydro-dibenzo[b,f] [1,4]dioxecin-4-yl)carbonyl)-L-phenylalanine] to `COc1ccc(C[C@H](NC(=O)c2c(CCC(=O)O)ccc3c2OCCCc2cc(NC(=N)N)ccc2C(=O)O3)C(=O)O)cc1` [Example 112, N-((10-carbamimidamido-3-(2-carboxyethyl)-13-oxo-6,7,8,13-tetrahydro-dibenzo[b,f] [1,4]dioxecin-4-yl)carbonyl)-O-methyl-L-tyrosine], the inhibition at 3.3 µM falls from 101% to 99%.

Going from `N=C(N)Nc1ccc2c(c1)CCc1ccc(CCC(=O)N[C@@H](CC(=O)O)C(=O)O)cc1OC2=O` [Example 55, N-(3-(9-carbamimidamido-6-oxo-11,12-dihydro-6H-dibenzo[b,f]oxocin-3-yl)propanoyl)-L-aspartic acid] to `N=C(N)Nc1ccc2c(c1)CCc1cc(CCC(=O)N[C@@H](CC(=O)O)C(=O)O)ccc1OC2=O` [Example 56, N-(3-(9-carbamimidamido-6-oxo-11,12-dihydro-6H-dibenzo[b,f]oxocin-2-yl)propanoyl)-L-aspartic acid], the inhibition at 3.3 µM rises from 98% to 100%.

`N=C(N)Nc1ccc2c(c1)CCCOc1c(cccc1C(=O)N(Cc1ccc(C(=O)O)cc1)C(CC(=O)O)CC(=O)O)OC2=O` [Example 147, 3-(((10-carbamimidamido-13-oxo-6,7,8,13-tetrahydro-dibenzo[b,f] [1,4]dioxecin-4-yl)carbonyl)(4-carboxybenzyl)amino)penta-nedioic acid] and `N=C(N)Nc1ccc2c(c1)CCCOc1c(cccc1C(=O)N(CCC(=O)O)[C@@H](CC(=O)O)C(=O)O)OC2=O` [Example 138, N-((10-carbamimidamido-13-oxo-6,7,8,13-tetrahydro-dibenzo[b,f] [1,4]dioxecin-4-yl)carbonyl)-N-(2-carboxyethyl)-L-aspartic acid] are the same in inhibition at 3.3 µM: 100% for the first, 100% for the second.

`N=C(N)Nc1ccc2c(c1)OCCCc1c(cccc1C(=O)N[C@@H](CC(=O)O)C(=O)O)OC2=O` [Example 84, N-((3-carbamimidamido-14-oxo-7,8-dihydro-6H,14H-dibenzo[b,f][1,5]dioxecin-9-yl)carbonyl)-L-aspartic acid] and `N=C(N)Nc1ccc2c(c1)OCCCc1c(CCC(=O)N[C@@H](CC(=O)O)C(=O)O)cccc1OC2=O` [Example 79, N-(3-(3-Carbamimidamido-14-oxo-7,8-dihydro-6H,14H-dibenzo[b,f][1,5]dioxecin-9-yl)propanoyl)-L-aspartic acid] are the same in inhibition at 3.3 µM: 101% for the first, 101% for the second.

Compared with `N=C(N)Nc1ccc2c(c1)CCCCc1c(cccc1C(=O)NC(CC(=O)O)CC(=O)O)OC2=O` [Example 74, 3-(((3-carbamimidamido-14-oxo-5,7,8,14-tetrahydro-6H-dibenzo[b,h]oxecin-9-yl)carbony)amino)pentanedioic acid], `C[C@@H]1CCc2cc(NC(=N)N)ccc2C(=O)Oc2cccc(C(=O)N[C@@H](CC(=O)O)C(=O)O)c2C1` [Example 20, N-((3-carbamimidamido-7-methyl-14-oxo-6,7,8,14-tetrahydro-6H-dibenzo[b,h]oxecin-9-yl)carbonyl)-L-aspartic acid] is higher in inhibition at 3.3 µM: 101% for the first, 102% for the second.

`N=C(N)Nc1ccc2c(c1)CCCOc1c(cccc1C(=O)N1CCC(C(=O)N[C@@H](CC(=O)O)C(=O)O)CC1)OC2=O` [Example 101, N-((1-((10-carbamimidamido-13-oxo-6,7,8,13-tetrahydro-dibenzo[b,f] [1,4]dioxecin-4-yl)carbonyl)-piperidin-4-yl)carbonyl)-L-aspartic acid] and `N=C(N)Nc1ccc2c(c1)CCCOc1c(cccc1C(=O)N(CC(=O)O)[C@@H](CC(N)=O)C(=O)O)OC2=O` [Example 65, N^2-((10-Carbamimidamido-13-oxo-6,7,8,13-tetrahydrodibenzo[b,f][1,4]dioxecin-4-yl)carbonyl)-N^2-(carboxymethyl)-L-asparagine] are the same in inhibition at 3.3 µM: 100% for the first, 100% for the second.

Going from `N=C(N)Nc1ccc2c(c1)CCCOc1c(cccc1C(=O)N1CCC[C@H]1C(=O)O)OC2=O` [Example 12, 1-((10-carbamimidamido-13-oxo-6,7,8,13-tetrahydro-dibenzo[b,f] [1,4]dioxecin-4-yl)carbonyl)-L-proline] to `N=C(N)Nc1ccc2c(c1)CCCCc1c(cccc1C(=O)O)OC2=O` [Example 34, 3-carbamimidamido-14-oxo-6,7,8,14-tetrahydro-6H-dibenzo[b, h]oxecine-9-carboxylic acid], the inhibition at 3.3 µM falls from 101% to 75%.

`CC1CCCc2cc(NC(=N)N)ccc2C(=O)Oc2cccc(C(=O)N[C@@H](CC(=O)O)C(=O)O)c21` (stereo partly drawn) [Example 21, N-((3-carbamimidamido-8-methyl-14-oxo-5,7,8,14-tetrahydro-6H-dibenzo[b,h]oxecin-9-yl)carbonyl)-L-aspartic acid] and `Cc1cc2c(c(C(=O)N[C@@H](CC(=O)O)C(=O)O)c1)OCCCc1cc(NC(=N)N)ccc1C(=O)O2` [Example 70, N-((10-carbamimidamido-2-methyl-13-oxo-6,7,8,13-tetrahydro-dibenzo[b,f] [1,4]dioxecin-4-yl)carbonyl)-L-aspartic acid] are the same in inhibition at 3.3 µM: 102% for the first, 102% for the second.

First: N=C(N)c1ccc2c(c1)CCc1cc(CCC(=O)N[C@@H](CC(=O)O)C(=O)O)ccc1C(=O)O2 [Example 60, N-(3-(2-carbamimidoyl-6-oxo-11,12-dihydro-6H-dibenzo[b,f]oxocin-9-yl)propanoyl)-L-aspartic acid]
Second: N=C(N)Nc1ccc2c(c1)OCCc1cc(CCC(=O)N[C@@H](CC(=O)O)C(=O)O)ccc1OC2=O [Example 50, N-(3-(9-Carbamimidamido-6-oxo-12,13-dihydro-6H-dibenzo[b,f][1,5]dioxonin-2-yl)propanoyl)-L-aspartic acid trifluoroacetate]
The inhibition at 3.3 µM of the first is lower: 59% for the first, 101% for the second.

`CN(C(=O)CCc1cccc2c1OCCCc1cc(NC(=N)N)ccc1C(=O)O2)[C@@H](CC(=O)O)C(=O)O` [Example 102, N-(3-(10-carbamimidamido-13-oxo-6,7,8,13-tetrahydro-dibenzo[b,f] [1,4]dioxecin-4-yl)propanoyl)-N-methyl-L-aspartic acid] and `CN(CC(=O)N(C)[C@@H](CC(=O)O)C(=O)O)C(=O)c1cccc2c1OCCCc1cc(NC(=N)N)ccc1C(=O)O2` [Example 105, N-((10-carbamimidamido-13-oxo-6,7,8,13-tetrahydro-dibenzo[b,f] [1,4]dioxecin-4-yl)carbonyl)-N-methylglycyl-N-methyl-L-aspartic acid] are the same in inhibition at 3.3 µM: 101% for the first, 101% for the second.

Compared with `N=C(N)Nc1ccc2c(c1)CCCOc1ccccc1OC2=O` [Example 68, 1-(13-Oxo-6,7,8,13-tetrahydrodibenzo[b,f][1,4]dioxecin-10-yl)guanidine trifluoroacetate], `N=C(N)Nc1ccc2c(c1)CCCOc1c(ccc(CCC(=O)NC(CC(=O)O)CC(=O)O)c1C(=O)N[C@@H](Cc1ccc(O)cc1)C(=O)O)OC2=O` [Example 123, 3-((3-(10-carbamimidamido-4-(((1S)-1-carboxy-2-(4-hydroxyphenyl)ethyl)carbamoyl)-13-oxo-6,7,8,13-tetrahydro-dibenzo[b,f] [1,4]dioxecin-3-yl)propanoyl)amino) pentanedioic acid] is higher in inhibition at 3.3 µM: 83% for the first, 101% for the second.

Work on `COc1ccc(C[C@H](NC(=O)c2c(CCC(=O)NC(CC(=O)O)CC(=O)O)ccc3c2OCCCc2cc(NC(=N)N)ccc2C(=O)O3)C(=O)O)cc1` [Example 132, 3-((3-(10-carbamimidamido-4-(((1S)-1-carboxy-2-(4-methoxyphenyl)ethyl)carbamoyl)-13-oxo-6,7,8,13-tetrahydro-dibenzo[b,f] [1,4]dioxecin-3-yl)propanoyl)amino) pentanedioic acid] yielded an inhibition at 3.3 µM of 100%.
